According to patent US20030207432A1, “Remedies for intractable wound” (Fujisawa Pharmaceutical Co., Ltd.,, priority 1999, published 2003):
Entries after “also recorded” stand apart in the source; their conditions may differ.

Assays:
[1] = test system: foot ulcer induced by acetic acid; test: Foot ulcer induced by acetic acid, normal rats (applied FR136706); type: in vivo, rat; details: for Ulcer area after administration of acetic acid / Swelling score after administration of acetic acid: normal rat, 0.2% in PEG400 applied, average, n=6; for Swelling score after administration of acetic acid: score 0-3
Protocol: (§1) The action of the compound (applied) in accordance with this invention on a foot ulcer induced by acetic acid was examined by using normal and diabetic rats. Diabetes was induced in each of a seven-week-old male SD rats by intravenously administrating 60 mg/kg streptozotocin (STZ) to its tail. Fourteen days after the administration of STZ, 20 μl glacial acetic acid was administered into the skin of the left foot instep of each of the diabetic rats and control rats of the same age while anesthetized using ether, thereby causing necrosis at the portion. In the case when the necrotic cuticle of the skin remained two days after the necrosis, the cuticle was removed surgically. Then, the administration of FR136706 (0.2% solution in PEG (polyethylene glycol) 400) was started (50 μl to the affected portion). PEG400 was administered to the control group in a similar way. In a period between two days and 25 days after the administration of acetic acid, swelling scores (0: no swelling, 1: slight swelling, 2: intermediate swelling, 3: significant swelling) was checked visually, and the major axis length and the minor axis length of each ulcer was measured with vernier calipers. The area of each ulcer was calculated from the major axis length and the minor axis length thereof.

[2] = test system: foot ulcer induced by acetic acid; test: Diabetic rat foot ulcer curing action (STZ diabetic rats, foot ulcer induced by acetic acid); type: in vivo; details: for Ulcer area after administration of acetic acid / Swelling score after administration of acetic acid: diabetic rat, 0.2% in PEG400 applied, average, n=6; for Swelling score after administration of acetic acid: score 0-3
Protocol: as §1

[3] = qualitative, by solvent; known properties from earlier filings; cited from earlier work
[4] = normal rats, 0.2% solution in PEG400 applied
[5] = diabetic rats, 0.2% solution in PEG400 applied

With `CC(C)C(NC(=O)[C@@H]1CCCN1C(=O)[C@@H](NC(=O)c1ccc(C(=O)NCC(=O)[O-])cc1)C(C)C)C(=O)C(F)(F)F.[Na+]` (mixture of isomers) [FR136706, Sodium salt of 3(RS)-[[4-(carboxymethylaminocarbonyl)phenylcarbonyl]-L-valyl-L-prolyl]amino-1,1,1-trifluoro-4-methyl-2-oxopentane] the “Ulcer area after administration of acetic acid” value (“Ulcer area after administration” below) ([1]; after 2 days) was 58.37 mm^2, the “Swelling score after administration of acetic acid” value (“Swelling score after administration” for short) ([1]; after 2 days) was 2.5 and the “Ulcer area after administration” value ([1]; after 8 days) was 71.42 mm^2. The “Swelling score after administration” value ([1]; after 8 days) was 2.0, the “Ulcer area after administration” value ([1]; after 11 days) was 53.21 mm^2 and the “Swelling score after administration” value ([1]; after 11 days) was 1.5. For the same compound, the “Ulcer area after administration” value ([1]; after 15 days) was 18.32 mm^2, the “Swelling score after administration” value ([1]; after 15 days) was 1.0 and the “Ulcer area after administration” value ([1]; after 18 days) was 0.69 mm^2. For the same compound, the “Swelling score after administration” value ([1]; after 18 days) was 0.5, the “Ulcer area after administration” value ([1]; after 22 days) was 0.00 mm^2 and the “Swelling score after administration” value ([1]; after 22 days) was 0.0. For the same compound, the “Ulcer area after administration” value ([1]; after 25 days) was 0.00 mm^2, the “Swelling score after administration” value ([1]; after 25 days) was 0.0 and the “Effect on contraction of ulcer areas (in words)” value [1, 4] was “did not act on the normal rats”. For the same compound, the “Effect on recovery of swelling scores (in words)” value [1, 4] was “did not act on the normal rats”, the “Ulcer area after administration” value ([2]; after 2 days) was 69.17 mm^2 and the “Swelling score after administration” value ([2]; after 2 days) was 2.2. For the same compound, the “Ulcer area after administration” value ([2]; after 8 days) was 91.77 mm^2, the “Swelling score after administration” value ([2]; after 8 days) was 2.8 and the “Ulcer area after administration” value ([2]; after 11 days) was 72.38 mm^2. For the same compound, the “Swelling score after administration” value ([2]; after 11 days) was 2.5, the “Ulcer area after administration” value ([2]; after 15 days) was 41.00 mm^2 and the “Swelling score after administration” value ([2]; after 15 days) was 1.5. The “Ulcer area after administration” value ([2]; after 18 days) was 16.10 mm^2, the “Swelling score after administration” value ([2]; after 18 days) was 1.5 and the “Ulcer area after administration” value ([2]; after 22 days) was 12.08 mm^2. For the same compound, the “Swelling score after administration” value ([2]; after 22 days) was 1.2, the “Ulcer area after administration” value ([2]; after 25 days) was 6.99 mm^2 and the “Swelling score after administration” value ([2]; after 25 days, & significant at 5% vs PEG400 diabetic group) was 0.7. The “Effect on contraction of ulcer areas (in words)” value [2, 5] was “tended to promote the contraction of the ulcer areas of the diabetic rats” and the “Effect on recovery of swelling scores (in words)” value [2, 5] was “promoted the recovery of the diabetic rats”.

For “Dipotassium salt of the WS7622A disulfate ester”, the Solubility [3] is listed as “soluble: water, methanol; also recorded: insoluble: chloroform, n-hexane”.

For “Disodium salt of WS7622A disulfate ester”, the Solubility [3] is given as “soluble: water, methanol; also recorded: insoluble: chloroform, n-hexane”.
